Source: ChEMBL document CHEMBL1138129, “A novel nicotinic acetylcholine receptor antagonist radioligand for PET studies” (Bioorg Med Chem Lett, 2006)

Legend:
[1] = biological target: Neuronal acetylcholine receptor; alpha4/beta2 (Homo sapiens, UniProt P17787+P43681); experiment: Displacement of [3H]epibatidine from alpha-4-beta-2 ACHR; type: protein-complex assay
[2] = Half life of the compound; type: ADME
[3] = Protein binding in baboon plasma; type: ADME, Papio; details: read-out: PPB (converted)
[4] = Lipophilicity as measured by Log P; type: physicochemical; details: octanol/water

Neuronal acetylcholine receptor; alpha4/beta2, sequence (P17787 whole entry): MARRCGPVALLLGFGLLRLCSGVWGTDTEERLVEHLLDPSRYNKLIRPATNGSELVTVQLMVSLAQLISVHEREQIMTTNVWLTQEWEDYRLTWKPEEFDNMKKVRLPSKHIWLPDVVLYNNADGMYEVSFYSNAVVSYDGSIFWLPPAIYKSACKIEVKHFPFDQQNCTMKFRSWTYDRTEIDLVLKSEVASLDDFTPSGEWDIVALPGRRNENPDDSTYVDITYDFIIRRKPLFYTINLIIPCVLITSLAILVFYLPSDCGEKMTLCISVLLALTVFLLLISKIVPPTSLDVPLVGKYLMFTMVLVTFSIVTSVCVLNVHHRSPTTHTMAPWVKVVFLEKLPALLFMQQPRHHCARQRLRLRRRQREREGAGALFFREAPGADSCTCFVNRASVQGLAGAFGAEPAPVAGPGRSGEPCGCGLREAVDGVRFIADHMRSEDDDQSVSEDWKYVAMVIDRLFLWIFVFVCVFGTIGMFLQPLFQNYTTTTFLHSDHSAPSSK
Neuronal acetylcholine receptor; alpha4/beta2, sequence (P43681 whole entry): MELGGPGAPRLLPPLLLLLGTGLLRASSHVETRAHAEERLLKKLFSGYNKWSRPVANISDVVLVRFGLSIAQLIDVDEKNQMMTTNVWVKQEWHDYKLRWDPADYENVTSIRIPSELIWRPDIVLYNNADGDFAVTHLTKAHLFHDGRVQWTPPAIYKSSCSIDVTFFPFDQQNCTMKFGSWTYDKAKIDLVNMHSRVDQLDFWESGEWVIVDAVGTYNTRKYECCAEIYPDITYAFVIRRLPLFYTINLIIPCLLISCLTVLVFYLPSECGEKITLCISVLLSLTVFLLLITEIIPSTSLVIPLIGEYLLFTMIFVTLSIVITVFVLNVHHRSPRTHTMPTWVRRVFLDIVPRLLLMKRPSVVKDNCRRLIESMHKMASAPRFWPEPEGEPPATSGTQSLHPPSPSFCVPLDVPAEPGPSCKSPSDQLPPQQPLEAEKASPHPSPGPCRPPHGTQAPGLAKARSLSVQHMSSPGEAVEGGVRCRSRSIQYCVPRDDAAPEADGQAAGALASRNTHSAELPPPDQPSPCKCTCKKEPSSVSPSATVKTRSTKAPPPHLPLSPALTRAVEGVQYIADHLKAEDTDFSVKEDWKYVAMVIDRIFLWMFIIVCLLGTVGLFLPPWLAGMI

With `[11CH3]N1C2CCC1C(c1cncc(I)c1)C2` (centres undefined) the Ki [1] was 0.029 µM, the half-life [2] was 1 h and the fraction unbound [3] was 0.6. For the same compound, the logP [4] was 1.09.
